Values of other authors as cited in patent publication US20250248432A1, “MIXTURE COMPRISING D-ALLULOSE AND TASTE MODIFYING COMPOUNDS” (SYMRISE AG, priority 2019, published 2025).

Conditions: relative to sucrose

O=C(CO)C(O)C(O)C(O)CO [Allulose, D-allulose]
sweetness intensity of sucrose: about 70%
